Columns and labels:
[1] = system: GR*-eGFP in Saos-2(GIGT) cells; experiment: Glucocorticoid-induced eGFP translocation; format: cell-based, human; conditions: 1 μM, 30 min
[2] = system: eGFP-hGal8 in Saos-2 cells; experiment: Galectin recruitment assay for endosomal damage; format: cell-based, human; conditions: RNAiMAX 16 μL/mL or LLOMe 1 mM, 1 h
Saos-2 cells = experiment: FCS-based Lys9^R endosomal leakage assay; format: cell-based, human; conditions: for Lys9^R delivery efficiency (DE), cytosol / Lys9^R delivery efficiency (DE), nucleus: 60 min, FCS, n > 10 cells
[3] = system: eGFP-hGal3 in Saos-2 cells; experiment: Galectin recruitment assay for endosomal damage; format: cell-based, human
[4] = In vitro FCS diffusion measurement; format: physicochemical; conditions: Milli-Q water
[5] = 2,500 cells per well in transfection medium

C[C@@H]1C[C@H]2[C@@H]3CCC4=CC(=O)C=C[C@]4(C)[C@@]3(F)[C@@H](O)C[C@]2(C)[C@@]1(O)C(=O)CO [Dex, dexamethasone]
translocation ratio (TR) [1, 5]: 3.4 ± 0.40

COC(=O)[C@H](CC(C)C)NC(=O)[C@@H](N)CC(C)C [LLOMe, L-leucyl-L-leucine methyl ester]
increase of average ERC over untreated cells, eGFP-hGal8 [2]: 68 fold | Lys9^R delivery efficiency (DE), cytosol (Saos-2 cells; LLOMe 0.125 mM, no agent: 3): 3% | Lys9^R delivery efficiency (DE), nucleus (Saos-2 cells; LLOMe 0.125 mM, no agent: 4): 6% | Lys9^R delivery efficiency (DE), cytosol (Saos-2 cells; LLOMe 0.25 mM): 4% | Lys9^R delivery efficiency (DE), nucleus (Saos-2 cells; LLOMe 0.25 mM): 12% | Lys9^R delivery efficiency (DE), cytosol (Saos-2 cells; LLOMe 0.5 mM): 8% | Lys9^R delivery efficiency (DE), nucleus (Saos-2 cells; LLOMe 0.5 mM): 12% | Lys9^R delivery efficiency (DE), cytosol (Saos-2 cells; LLOMe 1.0 mM): 9% | Lys9^R delivery efficiency (DE), nucleus (Saos-2 cells; LLOMe 1.0 mM): 12% | endosomal leakage of Lys9^R (Saos-2 cells; LLOMe titration up to 1 mM, 1 h): no detectable endosomal leakage | vesicular staining compared to the total cell area ([3]; LLOMe 1 mM, 1 hour, corresponds to ERC 400.0): 4% | ERC value routinely obtained ([3]; LLOMe 1 mM, 1 hour, untreated cells around 0.0): ~400.0 | increase of average ERC over untreated cells, eGFP-hGal3 ([3]; RNAiMAX 16 μL/mL or LLOMe 1 mM, 1 h): 147 fold

Ac-KKKKKKKKK-NH2 [Lys9^UL]
Average τdiff in vitro at 25 °C [4]: 0.064 ± 0.001 ms | Measured D at 25 °C [4]: 206 ± 3 μm^2 s^-1

K^Dex-WYSCNVCGKAFVLSRHLNRHLRVHRRAT-CONH2 [2^Dex]
translocation ratio (TR) [1, 5]: 3.0 ± 0.090 | translocation ratio (TR) ([1]; complete media): around 2.0 | translocation ratio (TR) ([1]; transfection media): around 3.0

K^Dex–GPSQPTYPGDDAPVRDLIRFYRDLRRYLNVVTR HRY-CONH2 [1^Dex]
translocation ratio (TR) [1, 5]: 3.0 ± 0.40 | mean translocation ratio (TR) ([1]; cells transfected with non-targeting siRNA, non-treated 1.2 ± 0.1): 2.4 ± 0.3 | translocation ratio (TR) ([1]; complete media): around 2.0 | translocation ratio (TR) ([1]; transfection media): around 3.0
